Source: patent publication US20250304952A1, “DNA ELEMENT RESPONSIVE TO EXTRACHROMOSOMAL DNA IN CANCER CELLS” (The Board of Trustees of the Leland Stanford Junior …, priority 2021, published 2025)

Tests used:
Format in all cases: cell-based, human
[1] = system: COLO320-DM cells and COLO320-HSR cells; assay: JQ1 dose titration: cell viability (CellTiterGlo) and cell proliferation; details: viability 48 hours, proliferation over 72 hours
Description: Cells were plated in 96-well plates at 25,000 cells/well in triplicate and incubated either with JQ1 (Sigma-Aldrich SML1524) at the indicated concentrations or an equivalent volume of DMSO for 48 hours. Cell viability was measured using the CellTiterGlo assay kit (Promega G7572) in triplicate with luminescence measured on SpectraMax M5 plate reader with an integration time of 1 second per well. Luminescence was normalized to the DMSO treated controls and p values calculated using a Student's t-test comparing biological triplicates.
Cells were plated in 96-well plates at 10,000 cells/well and incubated either with JQ1 (Sigma-Aldrich SML1524) at the indicated concentrations or an equivalent volume of DMSO. Every 24 hours, cells were harvested and counted on Countess 3 Automated Cell Counter (Thermo Fisher) with Trypan Blue used to assess cell viability. P values were calculated using a Student's t-test comparing biological triplicates.

[2] = system: MYC transcription from ecDNA in COLO320-DM; assay: MYC transcription probability by joint nascent RNA and DNA FISH; details: 500 nM JQ1, 6 hours, RNA normalized to ecDNA copy number
Source text: To quantify the MYC gene expression on the ecDNAs, we ordered the RNA FISH probes conjugated with a Quasar 570 dye (Biosearch Technologies) targeting to the intronic region of human (hg19) MYC gene for detection of nascent RNA transcript. We also ordered the RNA FISH probes conjugated with a Quasar 670 dye targeting to the exonic region of human MYC gene for detection of both mature and nascent RNA transcripts. […]
To characterize the ecDNA hub shape and size, we employed the synthetic model—Surfaces object from Imaris (version 9.1, Bitplane) and applied a Gaussian filter (σ=1 voxel in xy) and background subtraction for optimal segmentation and quantification of ecDNA hubs. ecDNA hubs containing connected voxels were sorted by size and singleton ecDNAs were separated from ecDNA hubs (minimal two ecDNA molecules).
To measure the number of ecDNA or nascent transcripts, we localized the voxels corresponding to the local maximum of identified DNA or RNA FISH signal using the Imaris spots function module. We validated the accuracy of interphase ecDNA counting by comparing to quantification of ecDNA number by metaphase FISH as well as copy number estimated by whole genome sequencing FIG. 5f). […]

ecDNA+ COLO320-DM cells = assay: PVT1 promoter-driven NanoLuc luciferase reporter in COLO320-DM; details: JQ1 500 nM, 6 hours
Source text: We constructed a plasmid containing the 2 kb PVT1 promoter (chr8: 128,804,981-128,806,980, hg19) or the MYC promoter (chr8: 128,745,990-128,748,526, hg19) driving NanoLuc luciferase (PVT1p-nLuc) and a constitutive thymidine kinase (TK) promoter driving Firefly luciferase as an internal control (FIG. 3b). Briefly, pGL4-tk-luc2 (Promega) was digested with KpnI and PciI. A sequence containing multiple cloning sites ([…]), NanoLuc and BGH polyA sequence were inserted in tandem into the vector using Gibson assembly (NEBuilder DNA assembly mix). Next, the PVT1 promoter or the MYC promoter was inserted into the vector via NheI and SalI digestion to generate the final reporter construct. For the negative control, a minimal promoter ([…]) was used in place of the PVT1 promoter. For constructing plasmids with a cis-enhancer, an enhancer (chr8: 128347148-128348310, hg19; positive H3K27ac mark and looping to the PVT1 promoter in HiChIP, overlapping with BRD4 ChIP peak and ATAC-seq peak in COLO320-DM) was inserted directly 5′ to the promoter into the region with multiple cloning sites. […] Luciferase levels were quantified using Nano-Glo Dual reporter luciferase assay (Promega). The reporter level was calculated as the ratio of NanoLuc reading over firefly reading using Tecan M1000. Mean and standard errors were calculated based on three biological replicates with three technical replicate each.

[3] = system: MYC mRNA in COLO320-DM cells; assay: MYC RNA measured by RT-qPCR in COLO320-DM; details: 500 nM, 6 hours
Description: (§1) Cells were then treated for 6 hours with 500 nM JQ1 in DMSO unless otherwise indicated (Sigma-Aldrich SML1524) or an equivalent volume of DMSO.
(§2) RNA was extracted using RNeasy Plus mini Kit (QIAGEN 74136). Purified RNA was quantified by Nanodrop (Thermo Fisher). For RT-qPCR, 50 ng of RNA, 1× Brilliant II qRT-PCR mastermix with 1 μL RT/RNase block (Agilent 600825), and 200 nM forward and reverse primer were used. Each Ct value was measured using Lightcycler 480 (Roche) and each mean dCt was averaged from duplicate qRT-PCR reaction and performed in biological triplicate. Relative MYC RNA level (RT-qPCR primers MYC_exon3_fw and MYC_exon3_rv) was calculated by ddCt method compared to 18S and GAPDH controls (RT-qPCR primers GAPDH_fw, GAPDH_rv, 18S_fw, 18S_rv). P values were calculated using a Student's t-test by comparing the relative fold change of biological triplicates.
Approximately 0.6×10^6 COLO320-DM or COLO-320-HSR cells were plated in 6 well plates and cultured under standard conditions for 24 hours. Cells were then treated for 6 hours with one of the following: 500 nM JQ1 (Sigma-Aldrich SML1524), 500 nM MS645 (Sigma Aldrich SML2549), 1 μM THZ-1 (Selleck chemicals S7549), 20 μM SGC-SCP30 (Selleck chemicals S7256), 10 μM OICR-9429 (Selleck chemicals S7833), 50 μM MI-3 (Selleck chemicals S7619), 2 μM trichostatin A (Selleck chemicals S1045), or DMSO. […]

MYC in SNU16 = assay: Oncogene RNA measured by RT-qPCR in SNU16 (MYC); details: 500 nM JQ1, 6 hours
Description: as §1, §2

Structure (SMILES): Cc1sc2c(c1C)C(c1ccc(Cl)cc1)=N[C@@H](CC(=O)OC(C)(C)C)c1nnc(C)n1-2 [JQ1]
- cell killing, COLO320-DM versus COLO320-HSR [1]: modest preferential killing of COLO320-DM cells over HSR cells
- reduction of MYC transcription probability per ecDNA copy [2]: four-fold
- repression of PVT1p-mediated transcription (ecDNA+ COLO320-DM cells): ~5 fold
- MYC mRNA level [3]: preferentially lowered
- ecDNA-derived transcription of MYC (MYC in SNU16): reduced
